Assay results from PubChem BioAssay (NCI).
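Each compound was tested at five concentrations against cells in 96-well plates for 48 hours. GI50 is the concentration that inhibits growth by half. TGI is the concentration that stops growth completely.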

Experiments:
Test in all cases: DTP human tumour cell line panel, 48 h
786-0 renal = tested on: 786-0 renal
A498 renal = tested on: A498 renal
A549 NSCLC = tested on: A549 NSCLC
ACHN renal = tested on: ACHN renal
BT-549 breast = tested on: BT-549 breast
CAKI-1 renal = tested on: CAKI-1 renal
CCRF-CEM leukemia = tested on: CCRF-CEM leukemia
COLO 205 colon = tested on: COLO 205 colon
DU-145 prostate = tested on: DU-145 prostate
EKVX NSCLC = tested on: EKVX NSCLC
HCC-2998 colon = tested on: HCC-2998 colon
HCT-116 colon = tested on: HCT-116 colon
HCT-15 colon = tested on: HCT-15 colon
HL-60(TB) leukemia = tested on: HL-60(TB) leukemia
HOP-62 NSCLC = tested on: HOP-62 NSCLC
HOP-92 NSCLC = tested on: HOP-92 NSCLC
HS 578T breast = tested on: HS 578T breast
HT29 colon = tested on: HT29 colon
IGROV1 ovarian = tested on: IGROV1 ovarian
K-562 leukemia = tested on: K-562 leukemia
KM12 colon = tested on: KM12 colon
LOX IMVI melanoma = tested on: LOX IMVI melanoma
M14 melanoma = tested on: M14 melanoma
MALME-3M melanoma = tested on: MALME-3M melanoma
MCF7 breast = tested on: MCF7 breast
MDA-MB-231 breast = tested on: MDA-MB-231 breast
MDA-MB-435 = tested on: MDA-MB-435
MDA-MB-468 breast = tested on: MDA-MB-468 breast
MOLT-4 leukemia = tested on: MOLT-4 leukemia
NCI-H226 lung = tested on: NCI-H226 lung
NCI-H23 lung = tested on: NCI-H23 lung
NCI-H460 lung = tested on: NCI-H460 lung
NCI-H522 lung = tested on: NCI-H522 lung
NCI/ADR-RES ovarian = tested on: NCI/ADR-RES ovarian
OVCAR-3 ovarian = tested on: OVCAR-3 ovarian
OVCAR-4 ovarian = tested on: OVCAR-4 ovarian
OVCAR-5 ovarian = tested on: OVCAR-5 ovarian
OVCAR-8 ovarian = tested on: OVCAR-8 ovarian
PC-3 prostate = tested on: PC-3 prostate
RPMI-8226 leukemia = tested on: RPMI-8226 leukemia
RXF 393 renal = tested on: RXF 393 renal
SF-268 CNS = tested on: SF-268 CNS
SF-295 CNS = tested on: SF-295 CNS
SF-539 CNS = tested on: SF-539 CNS
SK-MEL-2 melanoma = tested on: SK-MEL-2 melanoma
SK-MEL-28 melanoma = tested on: SK-MEL-28 melanoma
SK-MEL-5 melanoma = tested on: SK-MEL-5 melanoma
SK-OV-3 ovarian = tested on: SK-OV-3 ovarian
SN12C renal = tested on: SN12C renal
SNB-19 CNS = tested on: SNB-19 CNS
SNB-75 CNS = tested on: SNB-75 CNS
SR leukemia = tested on: SR leukemia
SW-620 colon = tested on: SW-620 colon
T-47D breast = tested on: T-47D breast
TK-10 renal = tested on: TK-10 renal
U251 CNS = tested on: U251 CNS
UACC-257 melanoma = tested on: UACC-257 melanoma
UACC-62 melanoma = tested on: UACC-62 melanoma
UO-31 renal = tested on: UO-31 renal

`COc1cc(-c2nc3ccc(C)cc3[nH]2)ccc1OCc1nnc(-c2ccc(Br)cc2)o1` gave a GI50 (786-0 renal) of 16.6 µM, a TGI (786-0 renal) of 45.5 µM and a GI50 (A498 renal) of 30.3 µM. The TGI (A498 renal) was 93.3 µM, the GI50 (A549 NSCLC) was 31 µM and the TGI (A549 NSCLC) was greater than 100 µM. For the same compound, the GI50 (ACHN renal) was 27.2 µM, the TGI (ACHN renal) was greater than 100 µM and the GI50 (BT-549 breast) was 21.3 µM. It also gave a TGI (BT-549 breast) of 48.8 µM, a GI50 (CAKI-1 renal) of 25.5 µM and a TGI (CAKI-1 renal) greater than 100 µM. It also gave a GI50 (CCRF-CEM leukemia) of 28.3 µM, a TGI (CCRF-CEM leukemia) greater than 100 µM and a GI50 (COLO 205 colon) of 27.1 µM. It also gave a TGI (COLO 205 colon) greater than 100 µM, a GI50 (DU-145 prostate) of 51.7 µM and a TGI (DU-145 prostate) greater than 100 µM. It also gave a GI50 (EKVX NSCLC) of 18.9 µM, a TGI (EKVX NSCLC) greater than 100 µM and a GI50 (HCC-2998 colon) of 26.2 µM. For the same compound, the TGI (HCC-2998 colon) was greater than 100 µM, the GI50 (HCT-116 colon) was 25.4 µM and the TGI (HCT-116 colon) was greater than 100 µM. It also gave a GI50 (HCT-15 colon) of 12.2 µM, a TGI (HCT-15 colon) of 85.7 µM and a GI50 (HL-60(TB) leukemia) of 18.6 µM. The TGI (HL-60(TB) leukemia) was 39 µM, the GI50 (HOP-62 NSCLC) was 28.4 µM and the TGI (HOP-62 NSCLC) was greater than 100 µM. For the same compound, the GI50 (HOP-92 NSCLC) was 15.6 µM, the TGI (HOP-92 NSCLC) was greater than 100 µM and the GI50 (HS 578T breast) was 12.5 µM. For the same compound, the TGI (HS 578T breast) was 45.4 µM, the GI50 (HT29 colon) was 10.8 µM and the TGI (HT29 colon) was 53.6 µM. It also gave a GI50 (IGROV1 ovarian) of 16.3 µM, a TGI (IGROV1 ovarian) greater than 100 µM and a GI50 (K-562 leukemia) of 15.4 µM. It also gave a TGI (K-562 leukemia) greater than 100 µM, a GI50 (KM12 colon) of 55.1 µM and a TGI (KM12 colon) greater than 100 µM. The GI50 (LOX IMVI melanoma) was 12.1 µM, the TGI (LOX IMVI melanoma) was 27.5 µM and the GI50 (M14 melanoma) was 40.2 µM. The TGI (M14 melanoma) was greater than 100 µM, the GI50 (MALME-3M melanoma) was 12.4 µM and the TGI (MALME-3M melanoma) was 28.7 µM. For the same compound, the GI50 (MCF7 breast) was 4.28 µM, the TGI (MCF7 breast) was 70.7 µM and the GI50 (MDA-MB-231 breast) was 14.4 µM. For the same compound, the TGI (MDA-MB-231 breast) was 33.1 µM, the GI50 (MDA-MB-435) was 18.7 µM and the TGI (MDA-MB-435) was 53.3 µM. For the same compound, the GI50 (MDA-MB-468 breast) was 14 µM, the TGI (MDA-MB-468 breast) was 30.9 µM and the GI50 (MOLT-4 leukemia) was 6.86 µM. It also gave a TGI (MOLT-4 leukemia) greater than 100 µM, a GI50 (NCI-H226 lung) of 15.3 µM and a TGI (NCI-H226 lung) greater than 100 µM. For the same compound, the GI50 (NCI-H23 lung) was 32 µM, the TGI (NCI-H23 lung) was greater than 100 µM and the GI50 (NCI-H460 lung) was 27.8 µM. For the same compound, the TGI (NCI-H460 lung) was greater than 100 µM, the GI50 (NCI-H522 lung) was 17.1 µM and the TGI (NCI-H522 lung) was 45 µM. It also gave a GI50 (NCI/ADR-RES ovarian) of 19.3 µM, a TGI (NCI/ADR-RES ovarian) greater than 100 µM and a GI50 (OVCAR-3 ovarian) of 20.5 µM. It also gave a TGI (OVCAR-3 ovarian) of 52.9 µM, a GI50 (OVCAR-4 ovarian) of 14.3 µM and a TGI (OVCAR-4 ovarian) of 38.4 µM. For the same compound, the GI50 (OVCAR-5 ovarian) was 57.2 µM, the TGI (OVCAR-5 ovarian) was greater than 100 µM and the GI50 (OVCAR-8 ovarian) was 16.1 µM. It also gave a TGI (OVCAR-8 ovarian) of 45.3 µM, a GI50 (PC-3 prostate) of 40.3 µM and a TGI (PC-3 prostate) greater than 100 µM. The GI50 (RPMI-8226 leukemia) was 8.54 µM, the TGI (RPMI-8226 leukemia) was greater than 100 µM and the GI50 (RXF 393 renal) was 20.4 µM. It also gave a TGI (RXF 393 renal) of 59.8 µM, a GI50 (SF-268 CNS) of 36.1 µM and a TGI (SF-268 CNS) greater than 100 µM. For the same compound, the GI50 (SF-295 CNS) was 14.9 µM, the TGI (SF-295 CNS) was 34.8 µM and the GI50 (SF-539 CNS) was 12.6 µM. For the same compound, the TGI (SF-539 CNS) was 26.7 µM, the GI50 (SK-MEL-2 melanoma) was 27.7 µM and the TGI (SK-MEL-2 melanoma) was greater than 100 µM. It also gave a GI50 (SK-MEL-28 melanoma) of 22.2 µM, a TGI (SK-MEL-28 melanoma) greater than 100 µM and a GI50 (SK-MEL-5 melanoma) of 11.8 µM. The TGI (SK-MEL-5 melanoma) was 34.1 µM, the GI50 (SK-OV-3 ovarian) was 23.6 µM and the TGI (SK-OV-3 ovarian) was greater than 100 µM. The GI50 (SN12C renal) was 29.9 µM, the TGI (SN12C renal) was greater than 100 µM and the GI50 (SNB-19 CNS) was 52.3 µM. For the same compound, the TGI (SNB-19 CNS) was greater than 100 µM, the GI50 (SNB-75 CNS) was 12.2 µM and the TGI (SNB-75 CNS) was 56.8 µM. It also gave a GI50 (SR leukemia) of 10.9 µM, a TGI (SR leukemia) of 56.4 µM and a GI50 (SW-620 colon) of 32.8 µM. It also gave a TGI (SW-620 colon) greater than 100 µM, a GI50 (T-47D breast) of 7.33 µM and a TGI (T-47D breast) of 34.4 µM. The GI50 (TK-10 renal) was 27.6 µM, the TGI (TK-10 renal) was 94.7 µM and the GI50 (U251 CNS) was 15.2 µM. The TGI (U251 CNS) was 55.4 µM, the GI50 (UACC-257 melanoma) was 17.3 µM and the TGI (UACC-257 melanoma) was 46.6 µM. The GI50 (UACC-62 melanoma) was 20.1 µM, the TGI (UACC-62 melanoma) was greater than 100 µM and the GI50 (UO-31 renal) was 11.1 µM. It also gave a TGI (UO-31 renal) greater than 100 µM.
